Measured values from patent US12453737B2, “Method for hydrating lyophilized cyclophosphamide composition and product thereof” (priority 2018, dated 2025).
Like-named read-outs stand apart in the source and are kept apart here.

Columns and labels:
[1] = Stability in 40° C./75% RH stability test chamber, CPP content; type: physicochemical; conditions: raw material, comparison
Description: The CPP freeze-dried composition hydrated for 16 h was placed in 40° C./75% RH stability test chamber, was sampled after 1 month and 3 months, and determined for CPP contents, which were compared with CPP monohydrate obtained by prior art hydrating process.
The CPP freeze-dried composition hydrated for 16 h was placed in 40° C./75% RH stability test chamber, sampled after 1 month and 3 months for determining CPP contents.

[2] = Stability in 45° C. oven, CPP content; type: physicochemical; conditions: raw material, comparison
Description: The moisture content, CPP content and redissolving time were determined for CPP freeze-dried composition hydrated with saturated sodium chloride solution in the freeze-drying box, respectively. In addition, the CPP freeze-dried compositions hydrated for 16 h and 24 h were placed in 45° C. oven and sampled for determining CPP contents after 1 week and 2 weeks, respectively.
Moisture content, CPP content and redissolving time were determined for CPP freeze-dried composition hydrated with saturated sodium chloride solution in the dryer, respectively. In addition, the CPP freeze-dried composition hydrated for 16 h was placed in 45° C. oven, sampled after 1 week and 2 weeks, respectively and determined for CPP contents. The CPP freeze-dried composition hydrated for 16 h was placed in 40° C./75% RH stability test chamber, was sampled after 1 month and 3 months, and determined for CPP contents, which were compared with CPP monohydrate obtained by prior art hydrating process.
The moisture content, CPP content and redissolving time were determined for CPP freeze-dried composition hydrated with saturated potassium sulfate solution in the dryer, respectively. In addition, the CPP freeze-dried composition hydrated for 16 h was placed in 45° C. oven and was sampled for determining CPP contents after 1 week and 2 weeks, respectively. […]

[3] = type: physicochemical; conditions: no hydration solution
Description: The hydrated CPP freeze-dried composition was stirred by weighting scoop gently until flowable powder comes into being. Then 1-2 g test sample was added on injection plate. Test method and parameters were as follows:
It will be understood by a person of ordinary skill in the art that a common approach to defining the distribution width is to cite three values on the x-axis, the D10, D50, and D90. As used herein, the term (“D50” refers to the median particle diameter, wherein half of the particle population has a diameter below such value. As used herein, the teed “D90,” refers to the particle diameter wherein 90% of the particle population has a diameter below such value. As used herein, the term “D10,” refers to the particle diameter wherein 10% of the particle population has a diameter below such value. PSD results were listed in Table 19.

[4] = type: physicochemical; conditions: hydration pressure 50 kPa
[5] = type: physicochemical; conditions: reconstituted with 0.9% sodium chloride injection to 20 mg/ml
Description: Then content and impurity profiles in Room Temperature (RT) and Refrigerator (2-8° C.) are determined respectively.

[6] = Skeletal density (gas pycnometer); type: physicochemical; conditions: no strength, no hydration solution
Description: Skeletal Density, also known as true density, is determined at room temperature by Gas Pycnometer (Micromeritics Accupyc II 1340).

[7] = type: physicochemical; conditions: no strength, no hydration solution
Description: TD of the test sample is measured as per the Method I described in USP <616> which is obtained by mechanically tapping a graduated measuring cylinder (TAP Density Tester, Sotax TD2) containing the test sample.

[8] = type: physicochemical; conditions: strength NA, hydration solution NA
Description: BD is calculated by the following formula: BD (g/mL)=W/V0 • wherein • W is the theoretical weight, g; • V0 is the macroscopic volume, mL. • V0 is calculated by the following formula: V0 (mL)=πD^2h/4 • wherein • D is the theoretical inside diameter, cm; • h is the height, cm.

[9] = type: physicochemical; conditions: hydration solution NA, 0.9% sodium chloride, 250 rpm, room temperature
Description: Then the glass vial was placed on cyclotron (HY-5, Shanghai Suhao intelligent system Co. Ltd) making the glass vial oscillate at 250 rpm at room temperature to dissolve the active ingredient completely. The redissolving time was recorded in Table 18.

With `O=P1(N(CCCl)CCCl)NCCCO1` (stereo not shown) [CPP monohydrate raw material, Cyclophosphamide monohydrate] the “Stability-CPP content % 40° C./75% RH-3 months” value [1] was 86.1% and the “Stability-CPP content % 45° C.-2 weeks” value [2] was 101.8%.
In the case of `O=P1(N(CCCl)CCCl)NCCCO1` (stereo not drawn) [P—[N,N-bis(β-chloroethyl)]-1-oxa-3-aza-2-phosphocyclohexane-P-oxide], the “D10 (μm)” value [3] was 5.6 μm, the “D50 (μm)” value [3] was 34.8 μm and the “D90 (μm)” value [3] was 262.0 μm. For the same compound, the “Content (%)” value ([4]; 45° C. -1 Week) was 82.6%, the “Impurity A (%)” value ([4]; 45° C. -1 Week) was 0.65% and the “Impurity B (%)” value ([4]; 45° C. -1 Week) was 0.61%. The “Impurity D (%)” value ([4]; 45° C. -1 Week) was 0.71%, the “Max. individual unknown impurity (%)” value ([4]; 45° C. -1 Week) was 2.01% and the “Total impurities (%)” value ([4]; 45° C. -1 Week) was 5.66%. The “Content (%)” value ([4]; 45° C. -2 Weeks) was 45.8%, the “Impurity A (%)” value ([4]; 45° C. -2 Weeks) was 1.82% and the “Impurity B (%)” value ([4]; 45° C. -2 Weeks) was 1.40%. The “Impurity D (%)” value ([4]; 45° C. -2 Weeks) was 0.98%, the “Max. individual unknown impurity (%)” value ([4]; 45° C. -2 Weeks) was 1.56% and the “Total impurities (%)” value ([4]; 45° C. -2 Weeks) was 15.59%. For the same compound, the “Impurity A” value ([5]; 0 h (initial)) was 0.03, the “Impurity B” value ([5]; 0 h (initial)) was 0.03 and the “Impurity D” value ([5]; 0 h (initial)) was 0.00. For the same compound, the Individual unknown impurity ([5]; 0 h (initial)) was 0.08, the Total impurities ([5]; 0 h (initial)) was 0.15 and the Content ([5]; 3 Days (2-8° C.)) was 96.7%. The “Impurity A” value ([5]; 3 Days (2-8° C.)) was 0.00, the “Impurity B” value ([5]; 3 Days (2-8° C.)) was 0.45 and the “Impurity D” value ([5]; 3 Days (2-8° C.)) was 0.00. For the same compound, the Individual unknown impurity ([5]; 3 Days (2-8° C.)) was 0.09, the Total impurities ([5]; 3 Days (2-8° C.)) was 0.57 and the Content ([5]; 6 Days (2-8° C.)) was 95.2%. For the same compound, the “Impurity A” value ([5]; 6 Days (2-8° C.)) was 0.00, the “Impurity B” value ([5]; 6 Days (2-8° C.)) was 0.64 and the “Impurity D” value ([5]; 6 Days (2-8° C.)) was 0.00. It also gave an Individual unknown impurity ([5]; 6 Days (2-8° C.)) of 0.12, a Total impurities ([5]; 6 Days (2-8° C.)) of 0.77 and a Content ([5]; 6 h (RT)) of 95.3%. The “Impurity A” value ([5]; 6 h (RT)) was 0.00, the “Impurity B” value ([5]; 6 h (RT)) was 0.71 and the “Impurity D” value ([5]; 6 h (RT)) was 0.00. The Individual unknown impurity ([5]; 6 h (RT)) was 0.06, the Total impurities ([5]; 6 h (RT)) was 0.81 and the Content ([5]; 12 h (RT)) was 96.7%. For the same compound, the “Impurity A” value ([5]; 12 h (RT)) was 0.00, the “Impurity B” value ([5]; 12 h (RT)) was 1.01 and the “Impurity D” value ([5]; 12 h (RT)) was 0.05. The Individual unknown impurity ([5]; 12 h (RT)) was 0.14, the Total impurities ([5]; 12 h (RT)) was 1.33 and the Content ([5]; 24 h (RT)) was 97.0%. The “Impurity A” value ([5]; 24 h (RT)) was 0.03, the “Impurity B” value ([5]; 24 h (RT)) was 1.82 and the “Impurity D” value ([5]; 24 h (RT)) was 0.30. The Individual unknown impurity ([5]; 24 h (RT)) was 0.47, the Total impurities ([5]; 24 h (RT)) was 2.64 and the “Skeletal Density” value [6] was 1.4286 g/mL. For the same compound, the “Tapped Density” value [7] was 0.9369 g/mL, the “Bulk Density” value [8] was 0.6246 g/mL and the “Redissolving Time” value ([9]; strength 0.5 g) was 8.7 min. The “Redissolving Time” value ([9]; strength 1 g) was 11.2 min and the “Redissolving Time” value ([9]; strength 2 g) was 16.4 min.
